In general, IC50 refers to the concentration needed to halve the response being measured.

Assay type in all cases: functional
The nature of experiment [1]: Antioxidant activity assessed as DPPH radical scavenging activity incubated for 30 mins. (Loss of DPPH colour is used to gauge radical scavenging.)
The subject of another experiment is PC-12. Nature of the experiment: Cytoprotective activity against H2O2-induced oxidative injury in rat PC-12 cells assessed as cell viability at 10 uM incubated for 24 hrs (reference value: 46.91 +/- 3.74%). To be noted: for viability at 10 µM: read-out: Activity.
Experiment [2] can be described thus: Antioxidant activity assessed as AAPH radical scavenging activity at 12.5 uM ORAC assay.

Bounds are passed on as bounds.

For `COC(=O)c1cc(O)cc(OC)c1C(=O)c1c(O)cc(C)cc1OC`, in experiment [1], the IC50 is over 100 µM. The viability at 10 µM in the experiment with PC-12 came out at 51.7%. In addition, in experiment [2], the Activity (umolequiv/umol) amounted to 1.55.
On to `COC(=O)c1c(C(=O)c2c(O)cc(C)cc2OC)c(OC)cc(O)c1[S@@+](C)[O-]`, for which, in experiment [1], the half-inhibitory concentration (IC50) is over 100 µM. The Activity (umolequiv/umol) in experiment [2] is 1.76.
The like results for `COC(=O)c1c(C(=O)c2c(O)cc(C)cc2OC)c(OC)cc(O)c1[S@+](C)[O-]` were, in that order, over 100 µM and 1.59.
Regarding `COc1c(O)c(O)c(C)c2scnc12`, the concentration for half-maximal inhibition (IC50) in experiment [1] turned out to be 3.45 µM. For the same compound, the viability at 10 µM in the experiment with PC-12 turned out to be 47.9%. Also, the Activity (umolequiv/umol) in experiment [2] was determined as 0.73.
The like results for `COC1=CC(=O)C(C)=C(O)C1=O` were, in that order, 17.3 µM, 50% and 0.67.
The like results for `COC(=O)c1c(SC[C@H]2NC(=O)CNC2=O)c(O)cc(OC)c1C(=O)c1c(O)cc(C)cc1OC` were, in that order, over 100 µM, 54.2% and 0.78.
On to VITAMIN E, for which the Activity with PC-12 was 57.7%.
With `COC(=O)c1c(C(=O)c2c(O)cc(C)cc2OC)c(OC)cc(O)c1[S+](C)[O-]` (racemic), the IC50 in experiment [1] is over 100 µM. Also, in the experiment on PC-12, the viability at 10 µM was 62.4%. For the same compound, in experiment [2], the Activity (umolequiv/umol) is 1.73.
Regarding `COc1c(O)c(O)c(C)c2sc(CO)nc12`, the IC50 in experiment [1] amounted to 23.7 µM. In addition, the viability at 10 µM in the experiment with PC-12 is 43.2%. Besides, the Activity (umolequiv/umol) in experiment [2] came out at 0.66.
As to `COC(=O)c1c2c(cc(OC)c1C(=O)c1c(O)cc(C)cc1OC)OC(OC)CS2` (racemic), in experiment [1], the IC50 was over 100 µM. Moreover, the viability at 10 µM in the experiment on PC-12 stood at 63.2%. The Activity (umolequiv/umol) in experiment [2] turned out to be 0.03.
With `COC(=O)c1c2c(cc(OC)c1C(=O)c1c(O)cc(C)cc1OC)O[C@H](OC)CS2`, the half-maximal inhibitory concentration (IC50) in experiment [1] was over 100 µM. Further, the Activity (umolequiv/umol) in experiment [2] amounted to 0.02.
Consider `COC(=O)CSc1c(O)cc(OC)c(C(=O)c2c(O)cc(C)cc2OC)c1C(=O)OC`, for which the IC50 in experiment [1] was over 100 µM. Further, the viability at 10 µM with PC-12 worked out at 49.1%. Further, in experiment [2], the Activity (umolequiv/umol) worked out at 1.65.
With `COC(=O)c1c2c(cc(OC)c1C(=O)c1c(O)cc(C)cc1OC)O[C@@H](OC)CS2`, in experiment [1], the IC50 is over 100 µM. In addition, the Activity (umolequiv/umol) in experiment [2] came out at 0.08.
For the compound `O=C1O[C@H]([C@@H](O)CO)C(O)=C1O` [ASCORBIC ACID], in experiment [1], the IC50 is 11.9 µM.

Values taken from ChEMBL document CHEMBL5136997, “Sulfur-Containing Phenolic Compounds from the Cave Soil-Derived Aspergillus fumigatus GZWMJZ-152” (J Nat Prod, 2022).
